Measured values published in patent US6468505B1, “Technique to monitor drug delivery noninvasively in vivo” (Philipp Lang, priority 1997, dated 2002).

Tests used:
[1] = NMR relaxometry of GdDTPA-BMA containing liposomes in vitro (inversion recovery T1); format: physicochemical; conditions: GdDTPA-BMA in solution of solubilized liposome (0.1% C12E8), 1 mM Gd
Experimental: NMR relaxometry and magnetic resonance (MR) imaging were performed using a 2.0 Tesla small bore magnet (Bruker Omega 2.0T System, Bruker Instruments, Inc., Fremont, Calif.) equipped with actively shielded gradients (Accustar™ S-150, Bruker Instruments, Inc., Fremont, Calif.) capable of delivering field gradients up to 20 G/cm along each axis (X, Y and Z).
T1 relaxation rates of various liposome suspensions with a mean diameter of 110 nm were determined by standard inversion recovery measurment. The content of GdDTPA-BMA in liposome suspensions was estimated from NMR relaxometry. An inversion recovery NMR spectroscopy pulse sequence was performed in which a nonselective composite inversion pulse (90x-180y-90x) was applied, followed by a gradient spoiler pulse to eliminate residual coherent in-plane magnetization. After a variable delay time (TI), z-magnetization was sampled by a nonselective 90° radiofrequency pulse and the signal was recorded. The inversion recovery signal profile was obtained from at least forty such measurements in which the TI delay was incremented from 20 ms to a value that was at least 3-fold greater than the T1.
Mz(TI)/M∞=1−k exp(TI/T1) Eq. 1,
in which Mz(TI) is the signal intensity measured at a particular value of TI, M∞ is the fully relaxed signal intensity, and k has the value of 2.0 if the inversion pulse is exactly 180°. […]

[2] = unencapsulated, free chelate; cited from earlier work

## CNC(=O)CN(CCN(CCN(CC(=O)[O-])CC(=O)NC)CC(=O)[O-])CC(=O)[O-].[Gd+3] [Gd-DTPA-BMA, Gadolinium-diethylene-triamine-pentaacetic-acid-bis-methylamide]
[1]
  Relaxivity=ΔR1/[Gd]: 4.07 s⁻¹ mM⁻¹
[2]
  biologic half-life: approximately 30 min

## O=C([O-])CN(CCN(CC(=O)[O-])CC(=O)O)CCN(CC(=O)[O-])CC(=O)O.[Gd+3] [Gd-DTPA, gadolinium-diethylene triamine pentaacetic acid]
[2]
  biologic half-life: approximately 30 min
